Reference: ChEMBL document CHEMBL3885861, “Open TG-GATES”

Species on record: Rattus norvegicus
Assay: Open TG-GATES - Regimen: Single
Format: toxicity, organism-based, Sprague-Dawley
Set-up: regimen Single, gender Male, age 6 weeks
Settings: in vivo, po, 10 mg/kg, route gavage, dose level Low; for APTT / Bas / Eos / Fbg / Hb / Ht / Lym / MCH / MCHC / MCV / Mono / Neu / PT / Plat / RBC / Ret / WBC: tissue Blood; for A/G / ALP / ALT / AST / BUN / CRE / Ca / Cl / DBIL / GLC / IP / K / LDH / Na / PL / RALB / TBIL / TC / TG / TP / gamma-GTP: tissue Plasma

In the case of `Cn1cc[nH]c1=S` [METHIMAZOLE], the TERMINAL_BW (3 h) is reported as 213.6 g, the APTT (3 h) is reported as 21.5 s and the Bas (3 h) is reported as 0%. It also gave an Eos (3 h) of 0.4%, a Fbg (3 h) of 291.6 mg/dL and a Hb (3 h) of 13.5 g/dL. The Ht (3 h) was 38.3%, the Lym (3 h) was 81.6% and the MCH (3 h) was 22.1 pg. It also gave an MCHC (3 h) of 35.3%, an MCV (3 h) of 62.6 fL and a Mono (3 h) of 2%. For the same compound, the Neu (3 h) was 15.2%, the PT (3 h) was 15.4 s and the Plat (3 h) was 123.9 x10_4/uL. The RBC (3 h) was 611.8 x10_4/ul, the Ret (3 h) was 8.4% and the WBC (3 h) was 93.7 x10_2/uL. The A/G (3 h) was 1.3, the ALP (3 h) was 1742.6 IU/L and the ALT (3 h) was 42 IU/L. The AST (3 h) was 72.4 IU/L, the BUN (3 h) was 13.8 mg/dL and the CRE (3 h) was 0.1 mg/dL. For the same compound, the Ca (3 h) was 10.6 mg/dL, the Cl (3 h) was 106.6 meq/L and the DBIL (3 h) was 0 mg/dL. For the same compound, the GLC (3 h) was 179 mg/dL, the IP (3 h) was 8.9 mg/dL and the K (3 h) was 4.2 meq/L. For the same compound, the LDH (3 h) was 206 IU/L, the Na (3 h) was 141.2 meq/L and the PL (3 h) was 141.4 mg/dL. For the same compound, the RALB (3 h) was 3 g/dL, the TBIL (3 h) was 0.006 mg/dL and the TC (3 h) was 77 mg/dL. It also gave a TG (3 h) of 74.4 mg/dL, a TP (3 h) of 5.4 g/dL and a gamma-GTP (3 h) of 1.2 IU/L. For the same compound, the TERMINAL_BW (6 h) was 213.5 g, the APTT (6 h) was 20.7 s and the Bas (6 h) was 0%. The Eos (6 h) was 1%, the Fbg (6 h) was 279.8 mg/dL and the Hb (6 h) was 13.6 g/dL. For the same compound, the Ht (6 h) was 38.5%, the Lym (6 h) was 78.2% and the MCH (6 h) was 21.7 pg. The MCHC (6 h) was 35.2%, the MCV (6 h) was 61.8 fL and the Mono (6 h) was 2.2%. For the same compound, the Neu (6 h) was 18%, the PT (6 h) was 16.1 s and the Plat (6 h) was 103 x10_4/uL. It also gave an RBC (6 h) of 624.6 x10_4/ul, a Ret (6 h) of 8.8% and a WBC (6 h) of 85.4 x10_2/uL. It also gave an A/G (6 h) of 1.2, an ALP (6 h) of 1761.8 IU/L and an ALT (6 h) of 44.2 IU/L. It also gave an AST (6 h) of 75.8 IU/L, a BUN (6 h) of 10.4 mg/dL and a CRE (6 h) of 0.1 mg/dL. The Ca (6 h) was 10.6 mg/dL, the Cl (6 h) was 106.4 meq/L and the DBIL (6 h) was 0 mg/dL. It also gave a GLC (6 h) of 185.2 mg/dL, an IP (6 h) of 9.3 mg/dL and a K (6 h) of 4.3 meq/L. It also gave an LDH (6 h) of 182.4 IU/L, a Na (6 h) of 141 meq/L and a PL (6 h) of 124.8 mg/dL. It also gave an RALB (6 h) of 2.8 g/dL, a TBIL (6 h) of 0.01 mg/dL and a TC (6 h) of 71.2 mg/dL. For the same compound, the TG (6 h) was 70.6 mg/dL, the TP (6 h) was 5.2 g/dL and the gamma-GTP (6 h) was 1 IU/L. The TERMINAL_BW (9 h) was 199.1 g, the APTT (9 h) was 21.1 s and the Bas (9 h) was 0%. For the same compound, the Eos (9 h) was 0.8%, the Fbg (9 h) was 299.4 mg/dL and the Hb (9 h) was 13.2 g/dL. For the same compound, the Ht (9 h) was 37.7%, the Lym (9 h) was 75.6% and the MCH (9 h) was 21.3 pg. It also gave an MCHC (9 h) of 35.2%, an MCV (9 h) of 60.6 fL and a Mono (9 h) of 1.6%. The Neu (9 h) was 21%, the PT (9 h) was 16.4 s and the Plat (9 h) was 124.5 x10_4/uL. The RBC (9 h) was 622.2 x10_4/ul, the Ret (9 h) was 7.7% and the WBC (9 h) was 78.9 x10_2/uL. For the same compound, the A/G (9 h) was 1.2, the ALP (9 h) was 1423.4 IU/L and the ALT (9 h) was 38.4 IU/L. It also gave an AST (9 h) of 71.2 IU/L, a BUN (9 h) of 10.8 mg/dL and a CRE (9 h) of 0.1 mg/dL. It also gave a Ca (9 h) of 10.5 mg/dL, a Cl (9 h) of 106.4 meq/L and a DBIL (9 h) of 0.002 mg/dL. For the same compound, the GLC (9 h) was 178.2 mg/dL, the IP (9 h) was 9.6 mg/dL and the K (9 h) was 4.5 meq/L. It also gave an LDH (9 h) of 154.8 IU/L, a Na (9 h) of 140.6 meq/L and a PL (9 h) of 133.2 mg/dL. For the same compound, the RALB (9 h) was 3 g/dL, the TBIL (9 h) was 0.01 mg/dL and the TC (9 h) was 76.8 mg/dL. It also gave a TG (9 h) of 65 mg/dL, a TP (9 h) of 5.5 g/dL and a gamma-GTP (9 h) of 1 IU/L. For the same compound, the TERMINAL_BW (24 h) was 223.9 g, the APTT (24 h) was 20.3 s and the Bas (24 h) was 0%. The Eos (24 h) was 0.8%, the Fbg (24 h) was 307.8 mg/dL and the Hb (24 h) was 14 g/dL. For the same compound, the Ht (24 h) was 39.8%, the Lym (24 h) was 79.8% and the MCH (24 h) was 21.7 pg. For the same compound, the MCHC (24 h) was 35.2%, the MCV (24 h) was 61.9 fL and the Mono (24 h) was 2.4%. For the same compound, the Neu (24 h) was 16.4%, the PT (24 h) was 15.6 s and the Plat (24 h) was 96.9 x10_4/uL. It also gave an RBC (24 h) of 643.8 x10_4/ul, a Ret (24 h) of 7.2% and a WBC (24 h) of 79.8 x10_2/uL. The A/G (24 h) was 1.3, the ALP (24 h) was 2168.2 IU/L and the ALT (24 h) was 55.2 IU/L. For the same compound, the AST (24 h) was 75 IU/L, the BUN (24 h) was 15.6 mg/dL and the CRE (24 h) was 0.1 mg/dL. It also gave a Ca (24 h) of 11 mg/dL, a Cl (24 h) of 106.2 meq/L and a DBIL (24 h) of 0 mg/dL. The GLC (24 h) was 180.6 mg/dL, the IP (24 h) was 6.9 mg/dL and the K (24 h) was 4.2 meq/L. It also gave an LDH (24 h) of 175 IU/L, a Na (24 h) of 142.2 meq/L and a PL (24 h) of 169.8 mg/dL. For the same compound, the RALB (24 h) was 3.1 g/dL, the TBIL (24 h) was 0.01 mg/dL and the TC (24 h) was 85.8 mg/dL. It also gave a TG (24 h) of 145.4 mg/dL, a TP (24 h) of 5.5 g/dL and a gamma-GTP (24 h) of 1 IU/L.
